Patent US10765114B2, “4-amino-6-(pyridyl and 2-substitutedphenyl)-picolinates and 6-amino-2-(pyridyl and 2-substitutedphenyl)-pyrimidine-4-carboxylates and their use as herbicides” (Dow AgroSciences LLC, priority 2013, dated 2020)

The compounds below were run on Key Broadleaf Weed and Crop Species (assay: Post-Emergent Test II (Table 5)). Details: Abutilon theophrasti, post-emergence, 336 h, ABUTH: velvetleaf (Abutilon theophrasti), application rate 70 (kg ai/ha; footnote: g ai/ha), read-out: Visual Growth Reduction (%) 14 Days After Application ABUTH.
Format: in vivo
Outline: (§1)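 Seedlings are raised 7-21 days in Metro-Mix 360 (pH 6.0-6.8) under greenhouse conditions, then sprayed at the first or second true leaf stage. Application is 187 L/ha, with serial rates down to 1/16× of the highest. Plants are subirrigated, and percent injury is rated visually after 14 days.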

Which pest or weed control at 70 g/ha does the source give for `Cc1c(-c2nc(C(=O)O)c(Cl)c(N)c2F)ccc(Cl)c1F` [Compound 67] here?
The pest or weed control at 70 g/ha was 85 to 94%.

Same assay, conditions: Abutilon theophrasti, post-emergence, 336 h, ABUTH: velvetleaf (Abutilon theophrasti), application rate 140 (kg ai/ha; footnote: g ai/ha), read-out: Visual Growth Reduction (%) 14 Days After Application ABUTH

Which pest or weed control at 140 g/ha does the source give for `Cc1c(-c2nc(C(=O)O)c(Cl)c(N)c2F)ccc(Cl)c1F` [Compound 67] here?
Its pest or weed control at 140 g/ha is 85 to 94%.

Same assay, conditions: Amaranthus retroflexus, post-emergence, 336 h, AMARE: redroot pigweed (Amaranthus retroflexus), application rate 70 (kg ai/ha; footnote: g ai/ha), read-out: Visual Growth Reduction (%) 14 Days After Application AMARE

`Cc1c(-c2nc(C(=O)O)c(Cl)c(N)c2F)ccc(Cl)c1F` [Compound 67] was tested. Which pest or weed control at 70 g/ha did it give?
The pest or weed control at 70 g/ha was 95 to 100%.

Same assay, conditions: Amaranthus retroflexus, post-emergence, 336 h, AMARE: redroot pigweed (Amaranthus retroflexus), application rate 140 (kg ai/ha; footnote: g ai/ha), read-out: Visual Growth Reduction (%) 14 Days After Application AMARE

`Cc1c(-c2nc(C(=O)O)c(Cl)c(N)c2F)ccc(Cl)c1F` [Compound 67] was tested. Which pest or weed control at 140 g/ha did it give?
The pest or weed control at 140 g/ha was 95 to 100%.

Same assay, conditions: Brassica napus, post-emergence, 336 h, BRSSS: oilseed rape, canola (Brassica napus), application rate 70 (kg ai/ha; footnote: g ai/ha), read-out: Visual Growth Reduction (%) 14 Days After Application BRSSS

With `Cc1c(-c2nc(C(=O)O)c(Cl)c(N)c2F)ccc(Cl)c1F` [Compound 67] as the compound, how does the pest or weed control at 70 g/ha read?
The pest or weed control at 70 g/ha was 95 to 100%.

Same assay, conditions: Brassica napus, post-emergence, 336 h, BRSSS: oilseed rape, canola (Brassica napus), application rate 140 (kg ai/ha; footnote: g ai/ha), read-out: Visual Growth Reduction (%) 14 Days After Application BRSSS

How did the pest or weed control at 140 g/ha turn out when `Cc1c(-c2nc(C(=O)O)c(Cl)c(N)c2F)ccc(Cl)c1F` [Compound 67] was run?
The pest or weed control at 140 g/ha was 95 to 100%.

Same assay, conditions: Chenopodium album, post-emergence, 336 h, CHEAL: lambsquarters (Chenopodium album), application rate 70 (kg ai/ha; footnote: g ai/ha), read-out: Visual Growth Reduction (%) 14 Days After Application CHEAL

How did the pest or weed control at 70 g/ha turn out when `Cc1c(-c2nc(C(=O)O)c(Cl)c(N)c2F)ccc(Cl)c1F` [Compound 67] was run?
Its pest or weed control at 70 g/ha is 95 to 100%.

Same assay, conditions: Chenopodium album, post-emergence, 336 h, CHEAL: lambsquarters (Chenopodium album), application rate 140 (kg ai/ha; footnote: g ai/ha), read-out: Visual Growth Reduction (%) 14 Days After Application CHEAL

With `Cc1c(-c2nc(C(=O)O)c(Cl)c(N)c2F)ccc(Cl)c1F` [Compound 67] as the compound, how does the pest or weed control at 140 g/ha read?
Its pest or weed control at 140 g/ha is 95 to 100%.

Same assay, conditions: Euphorbia heterophylla, post-emergence, 336 h, EPHHL: wild poinsettia (Euphorbia heterophylla), application rate 70 (kg ai/ha; footnote: g ai/ha), read-out: Visual Growth Reduction (%) 14 Days After Application EPHHL

`Cc1c(-c2nc(C(=O)O)c(Cl)c(N)c2F)ccc(Cl)c1F` [Compound 67] was tested. Which pest or weed control at 70 g/ha did it give?
The pest or weed control at 70 g/ha was 0 to 29%.

Same assay, conditions: Euphorbia heterophylla, post-emergence, 336 h, EPHHL: wild poinsettia (Euphorbia heterophylla), application rate 140 (kg ai/ha; footnote: g ai/ha), read-out: Visual Growth Reduction (%) 14 Days After Application EPHHL

For `Cc1c(-c2nc(C(=O)O)c(Cl)c(N)c2F)ccc(Cl)c1F` [Compound 67], which pest or weed control at 140 g/ha is on record?
Its pest or weed control at 140 g/ha is 0 to 29%.

Same assay, conditions: Helianthus annuus, post-emergence, 336 h, HELAN: sunflower (Helianthus annuus), application rate 70 (kg ai/ha; footnote: g ai/ha), read-out: Visual Growth Reduction (%) 14 Days After Application HELAN

With `Cc1c(-c2nc(C(=O)O)c(Cl)c(N)c2F)ccc(Cl)c1F` [Compound 67] as the compound, how does the pest or weed control at 70 g/ha read?
The pest or weed control at 70 g/ha was 95 to 100%.

Same assay, conditions: Helianthus annuus, post-emergence, 336 h, HELAN: sunflower (Helianthus annuus), application rate 140 (kg ai/ha; footnote: g ai/ha), read-out: Visual Growth Reduction (%) 14 Days After Application HELAN

How did the pest or weed control at 140 g/ha turn out when `Cc1c(-c2nc(C(=O)O)c(Cl)c(N)c2F)ccc(Cl)c1F` [Compound 67] was run?
The pest or weed control at 140 g/ha was 95 to 100%.

Same assay, conditions: Viola tricolor, post-emergence, 336 h, VIOTR: wild pansy (Viola tricolor), application rate 70 (kg ai/ha; footnote: g ai/ha), read-out: Visual Growth Reduction (%) 14 Days After Application VIOTR

`Cc1c(-c2nc(C(=O)O)c(Cl)c(N)c2F)ccc(Cl)c1F` [Compound 67] was tested. Which pest or weed control at 70 g/ha did it give?
Its pest or weed control at 70 g/ha is 0 to 29%.

Same assay, conditions: Viola tricolor, post-emergence, 336 h, VIOTR: wild pansy (Viola tricolor), application rate 140 (kg ai/ha; footnote: g ai/ha), read-out: Visual Growth Reduction (%) 14 Days After Application VIOTR

`Cc1c(-c2nc(C(=O)O)c(Cl)c(N)c2F)ccc(Cl)c1F` [Compound 67] was tested. Which pest or weed control at 140 g/ha did it give?
The pest or weed control at 140 g/ha was 0 to 29%.

These compounds were tested on Key Grass and Sedge Weeds as well as Grass Crops (assay: Post-Emergent Test II (Table 6)). Details: post-emergence, 336 h, CYPSS, 70 g ai/ha, 14 days after application, read-out: Visual Growth Reduction (%) 14 Days After Application CYPSS.
Format: in vivo
Outline: as §1

For `Cc1c(-c2nc(C(=O)O)c(Cl)c(N)c2F)ccc(Cl)c1F` [Compound 67], which pest or weed control at 70 g/ha is on record?
Its pest or weed control at 70 g/ha is 0 to 29%.

Same assay, conditions: post-emergence, 336 h, CYPSS, 140 g ai/ha, 14 days after application, read-out: Visual Growth Reduction (%) 14 Days After Application CYPSS

How did the pest or weed control at 140 g/ha turn out when `Cc1c(-c2nc(C(=O)O)c(Cl)c(N)c2F)ccc(Cl)c1F` [Compound 67] was run?
The pest or weed control at 140 g/ha was 0 to 29%.

Same assay, conditions: post-emergence, 336 h, DIGSA: crabgrass (Digitaria sanguinalis), 70 g ai/ha, 14 days after application, read-out: Visual Growth Reduction (%) 14 Days After Application DIGSA

For `Cc1c(-c2nc(C(=O)O)c(Cl)c(N)c2F)ccc(Cl)c1F` [Compound 67], which pest or weed control at 70 g/ha is on record?
Its pest or weed control at 70 g/ha is 0 to 29%.

Same assay, conditions: post-emergence, 336 h, DIGSA: crabgrass (Digitaria sanguinalis), 140 g ai/ha, 14 days after application, read-out: Visual Growth Reduction (%) 14 Days After Application DIGSA

How did the pest or weed control at 140 g/ha turn out when `Cc1c(-c2nc(C(=O)O)c(Cl)c(N)c2F)ccc(Cl)c1F` [Compound 67] was run?
The pest or weed control at 140 g/ha was 0 to 29%.

Same assay, conditions: post-emergence, 336 h, ECHSS, 70 g ai/ha, 14 days after application, read-out: Visual Growth Reduction (%) 14 Days After Application ECHSS

`Cc1c(-c2nc(C(=O)O)c(Cl)c(N)c2F)ccc(Cl)c1F` [Compound 67] was tested. Which pest or weed control at 70 g/ha did it give?
Its pest or weed control at 70 g/ha is 0 to 29%.

Same assay, conditions: post-emergence, 336 h, ECHSS, 140 g ai/ha, 14 days after application, read-out: Visual Growth Reduction (%) 14 Days After Application ECHSS

How did the pest or weed control at 140 g/ha turn out when `Cc1c(-c2nc(C(=O)O)c(Cl)c(N)c2F)ccc(Cl)c1F` [Compound 67] was run?
Its pest or weed control at 140 g/ha is 0 to 29%.

Same assay, conditions: post-emergence, 336 h, ORYSS (crop), 70 g ai/ha, 14 days after application, read-out: Visual Growth Reduction (%) 14 Days After Application ORYSS

Which pest or weed control at 70 g/ha does the source give for `Cc1c(-c2nc(C(=O)O)c(Cl)c(N)c2F)ccc(Cl)c1F` [Compound 67] here?
Its pest or weed control at 70 g/ha is 0 to 29%.

Same assay, conditions: post-emergence, 336 h, ORYSS (crop), 140 g ai/ha, 14 days after application, read-out: Visual Growth Reduction (%) 14 Days After Application ORYSS

Which pest or weed control at 140 g/ha does the source give for `Cc1c(-c2nc(C(=O)O)c(Cl)c(N)c2F)ccc(Cl)c1F` [Compound 67] here?
The pest or weed control at 140 g/ha was 0 to 29%.

Same assay, conditions: post-emergence, 336 h, SETFA: giant foxtail (Setaria faberi), 70 g ai/ha, 14 days after application, read-out: Visual Growth Reduction (%) 14 Days After Application SETFA

`Cc1c(-c2nc(C(=O)O)c(Cl)c(N)c2F)ccc(Cl)c1F` [Compound 67] was tested. Which pest or weed control at 70 g/ha did it give?
Its pest or weed control at 70 g/ha is 0 to 29%.

Same assay, conditions: post-emergence, 336 h, SETFA: giant foxtail (Setaria faberi), 140 g ai/ha, 14 days after application, read-out: Visual Growth Reduction (%) 14 Days After Application SETFA

`Cc1c(-c2nc(C(=O)O)c(Cl)c(N)c2F)ccc(Cl)c1F` [Compound 67] was tested. Which pest or weed control at 140 g/ha did it give?
The pest or weed control at 140 g/ha was 0 to 29%.

Same assay, conditions: post-emergence, 336 h, SORVU: grain sorghum (Sorghum vulgare), 70 g ai/ha, 14 days after application, read-out: Visual Growth Reduction (%) 14 Days After Application SORVU

For `Cc1c(-c2nc(C(=O)O)c(Cl)c(N)c2F)ccc(Cl)c1F` [Compound 67], which pest or weed control at 70 g/ha is on record?
Its pest or weed control at 70 g/ha is 0 to 29%.

Same assay, conditions: post-emergence, 336 h, SORVU: grain sorghum (Sorghum vulgare), 140 g ai/ha, 14 days after application, read-out: Visual Growth Reduction (%) 14 Days After Application SORVU

For `Cc1c(-c2nc(C(=O)O)c(Cl)c(N)c2F)ccc(Cl)c1F` [Compound 67], which pest or weed control at 140 g/ha is on record?
The pest or weed control at 140 g/ha was 0 to 29%.

Same assay, conditions: post-emergence, 336 h, TRZSS (crop), 70 g ai/ha, 14 days after application, read-out: Visual Growth Reduction (%) 14 Days After Application TRZSS

Which pest or weed control at 70 g/ha does the source give for `Cc1c(-c2nc(C(=O)O)c(Cl)c(N)c2F)ccc(Cl)c1F` [Compound 67] here?
Its pest or weed control at 70 g/ha is 0 to 29%.

Same assay, conditions: post-emergence, 336 h, TRZSS (crop), 140 g ai/ha, 14 days after application, read-out: Visual Growth Reduction (%) 14 Days After Application TRZSS

`Cc1c(-c2nc(C(=O)O)c(Cl)c(N)c2F)ccc(Cl)c1F` [Compound 67] was tested. Which pest or weed control at 140 g/ha did it give?
Its pest or weed control at 140 g/ha is 0 to 29%.

Same assay, conditions: post-emergence, 336 h, ZEAMX: maize, corn (Zea mays), 70 g ai/ha, 14 days after application, read-out: Visual Growth Reduction (%) 14 Days After Application ZEAMX

Which pest or weed control at 70 g/ha does the source give for `Cc1c(-c2nc(C(=O)O)c(Cl)c(N)c2F)ccc(Cl)c1F` [Compound 67] here?
Its pest or weed control at 70 g/ha is 0 to 29%.

Same assay, conditions: post-emergence, 336 h, ZEAMX: maize, corn (Zea mays), 140 g ai/ha, 14 days after application, read-out: Visual Growth Reduction (%) 14 Days After Application ZEAMX

How did the pest or weed control at 140 g/ha turn out when `Cc1c(-c2nc(C(=O)O)c(Cl)c(N)c2F)ccc(Cl)c1F` [Compound 67] was run?
Its pest or weed control at 140 g/ha is 0 to 29%.
